PubChem BioAssay AID1963860 (Molecular Pharmacology Branch, DTP, NCI, 2024)
pIC50: −log10 of the molar value.

Test system: CN0375-F725-PDC KRAS spheroid viability
Test: Anticancer human tumor CN0375-F725-PDC patient-derived colon carcinoma cell line growth inhibition [KRAS2]
Settings: spheroids with HUVEC and MSC; for pIC50: curve of first compound; for viability, T/C: stronger effect = lower value
Text: Multicellular complex tumor spheroid response to RAS pathway inhibitors in combination with a targeted agents in patient-derived cell lines with oncogenic KRAS variants from multiple cancer types
A high-throughput screen of multi-cell type tumor spheroids was designed to identify active combinations of targeted small molecules and KRAS pathway inhibitors. Complex spheroids include a stromal component modeled by human endothelial cells (HUVEC) and fibroblasts modeled by human mesenchymal stem cells (MSCs). The concentration ranges selected for each drug and investigational agent were based upon clinically achievable concentrations if the clinical Cmax of the agent was known.
Compounds. The drugs and investigational agents: BI-3406 (NSC825286), BAY-293 (NSC824723), batoprotafib (TNO155; NSC825523), sotorasib (AMG 510; NSC818433), MRTX1257 (NSC819558), elimusertib (BAY 1895344; NSC800525), molibresib (GSK525762; NSC774829), temuterkib (LY3214996; NSC803410), venetoclax (NSC766270), alisertib (NSC759677), olaparib (NSC753686), talazoparib (NSC767125), erdafitinib (NSC781556), ipatasertib (NSC767898), cabozantinib (NSC761068), nintedanib (NSC756659), abemaciclib (NSC768073), docetaxel (NSC628503), trametinib (NSC758246), and sapanisertib (NSC764658) were obtained from the National Cancer Institute (NCI) Developmental Therapeutics Program Chemical Repository. The FDA-approved anticancer drug set is available from the Developmental Therapeutics Program. […] The stock solutions were prepared in dimethyl sulfoxide (DMSO, Sigma-Aldrich, St. Louis, MO, cat. D2650) at 800-fold the tested concentration and stored at -70 degrees C prior to their use. All drugs and investigational agents were tested over a range starting from a high concentration at or near the clinical Cmax and decreasing in half-log increments. If the clinical Cmax for an agent had not been determined, the highest concentration tested was 10 microM.
Cell Culture. All cells were maintained in an incubator at 37 degrees C and 5% CO2 with 95% humidity. The PDC lines were cultured according to standard operating procedures established by the NCI PDMR (https://pdmr.cancer.gov/sops/default.htm). Briefly, all PDCs were thawed and cultured in Matrigel-coated flasks prepared with a working solution of 1X Ham's F-12 nutrient mix, without supplementation (Invitrogen, Waltham, MA, cat. 11765054), 100 U/mL penicillin-streptomycin (Invitrogen, cat. 15140122), and 2.5% Matrigel (Corning Inc., Corning, NY, cat. 354248) for the first three passages. All PDCs were cultured in complete DMEM/F-12 media containing advanced DMEM/F-12 (Invitrogen, cat. 12634028), 4.9% defined fetal bovine serum, heat inactivated (HyClone Laboratories Inc., Logan, UT, cat. SH30070.03HI), 389 ng/mL hydrocortisone (Sigma-Aldrich, cat. H4001), 9.7 ng/mL human EGF recombinant protein (Invitrogen, cat. PHG0313), 23.4 microg/mL adenine (Sigma-Aldrich, cat. A2786), 97.3 U/mL penicillin-streptomycin (Invitrogen, cat. 15140122), 1.9 mM L-glutamine (Invitrogen, cat. 25030081), and 9.7 microM Y-27632 dihydrochloride (Tocris Bioscience, Bristol, United Kingdom, cat. 1254). The PDCs were cultured in complete DMEM/F12 media without 9.7 microM Y-27632 dihydrochloride for at least two passages prior to the screen. The established cell line HOP-62 was cultured in RPMI 1640 medium, HEPES (Invitrogen, cat. 22400105) with 10% defined fetal bovine serum (HyClone Laboratories Inc., cat. SH30070.03) and 2 mM L-glutamine (Invitrogen, cat. 25030081). The pooled donor HUVEC were cultured in endothelial cell growth medium 2 (PromoCell, Heidelberg, Germany, cat. C-22011) and the hMSC were cultured in mesenchymal stem cell growth medium 2 (PromoCell, cat. C-28009). For all experiments, HUVEC and hMSC were used at passages </=5, while the malignant cell lines were used at passages </=15. […]

[1] = second compound 0.1 µM, first compound 0.0316 µM
[2] = second compound 0.1 µM, first compound 0.1 µM
[3] = second compound 0.1 µM, first compound 0.316 µM
[4] = second compound 0.1 µM, first compound 1 µM
[5] = second compound 0.1 µM, first compound 3.16 µM
[6] = second compound 0.1 µM, first compound 10 µM
[7] = second compound 0.316 µM, first compound 0.0316 µM
[8] = second compound 0.316 µM, first compound 0.1 µM
[9] = second compound 0.316 µM, first compound 0.316 µM
[10] = second compound 0.316 µM, first compound 1 µM
[11] = second compound 0.316 µM, first compound 3.16 µM
[12] = second compound 0.316 µM, first compound 10 µM
[13] = second compound 1 µM, first compound 0.0316 µM
[14] = second compound 1 µM, first compound 0.1 µM
[15] = second compound 1 µM, first compound 0.316 µM
[16] = second compound 1 µM, first compound 1 µM
[17] = second compound 1 µM, first compound 3.16 µM
[18] = second compound 1 µM, first compound 10 µM
[19] = second compound 3.16 µM, first compound 0.0316 µM
[20] = second compound 3.16 µM, first compound 0.1 µM
[21] = second compound 3.16 µM, first compound 0.316 µM
[22] = second compound 3.16 µM, first compound 1 µM
[23] = second compound 3.16 µM, first compound 3.16 µM
[24] = second compound 3.16 µM, first compound 10 µM
[25] = second compound 10 µM, first compound 0.0316 µM
[26] = second compound 10 µM, first compound 0.1 µM
[27] = second compound 10 µM, first compound 0.316 µM
[28] = second compound 10 µM, first compound 1 µM
[29] = second compound 10 µM, first compound 3.16 µM
[30] = second compound 10 µM, first compound 10 µM
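Also: spheroids exposed to agents for 7 days.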

SMILES	pIC50 (second compound 0.1 µM)	pIC50 (second compound 0.316 µM)	pIC50 (second compound 1 µM)	pIC50 (second compound 3.16 µM)	pIC50 (second compound 10 µM)	viability, T/C [1] [%]	viability, T/C [2] [%]	viability, T/C [3] [%]	viability, T/C [4] [%]	viability, T/C [7] [%]	viability, T/C [8] [%]	viability, T/C [9] [%]	viability, T/C [10] [%]	viability, T/C [13] [%]	viability, T/C [14] [%]	viability, T/C [15] [%]	viability, T/C [16] [%]	viability, T/C [19] [%]	viability, T/C [20] [%]	viability, T/C [21] [%]	further results
O=C(c1cc(Cc2n[nH]c(=O)c3ccccc23)ccc1F)N1CCN(C(=O)C2CC2)CC1 + CC1OCC2(CCN(c3cnc(Sc4ccnc(N)c4Cl)c(N)n3)CC2)C1N	< 5.00	< 5.00	< 5.00	< 5.00	< 5.00	97.7	98.4	91.3	100	100	93.9	90.3	89.6	107	98.3	93.6	92.6	83.4	82.2	82.5	viability, T/C [5]: 97.8%; viability, T/C [6]: 90%; viability, T/C [11]: 93%; viability, T/C [12]: 86.4%; viability, T/C [17]: 97.6%; viability, T/C [18]: 93.9%; viability, T/C [22]: 80.7%; viability, T/C [23]: 80.7%; viability, T/C [24]: 76.4%; viability, T/C [25]: 79.9%; viability, T/C [26]: 83.6%; viability, T/C [27]: 106%; viability, T/C [28]: 77%; viability, T/C [29]: 71.4%; viability, T/C [30]: 71.1%
CC(=O)Nc1cccc(-n2c(=O)n(C3CC3)c(=O)c3c(Nc4ccc(I)cc4F)n(C)c(=O)c(C)c32)c1																					viability, T/C (compound 0.0001 µM): 97.8% [middle of 5 runs]; viability, T/C (compound 0.000316 µM): 84.8% [middle of 5 runs]; viability, T/C (compound 0.001 µM): 71.6% [middle of 5 runs]; viability, T/C (compound 0.00316 µM): 59.6% [middle of 5 runs]; viability, T/C (compound 0.01 µM): 47.5% [middle of 5 runs]; viability, T/C (compound 0.0316 µM): 34.5% [middle of 5 runs]; IC50 (curve of compound): 7.97 nM [middle of 5 runs]
CCNC(=O)CC1N=C(c2ccc(Cl)cc2)c2cc(OC)ccc2-n2c(C)nnc21 (configuration not stated) + CC1OCC2(CCN(c3cnc(Sc4ccnc(N)c4Cl)c(N)n3)CC2)C1N	5.12	5.33	5.43	5.58	5.84	92.8	88.3	79.4	72.6	88	78.9	68.5	69.7	85.2	78.2	70.5	66.5	79.4	73.6	62.2	viability, T/C [5]: 60.8%; viability, T/C [6]: 46.1%; viability, T/C [11]: 58.8%; viability, T/C [12]: 37.3%; viability, T/C [17]: 51.6%; viability, T/C [18]: 37%; viability, T/C [22]: 61.9%; viability, T/C [23]: 48.3%; viability, T/C [24]: 36.8%; viability, T/C [25]: 72.3%; viability, T/C [26]: 73.8%; viability, T/C [27]: 60.7%; viability, T/C [28]: 53%; viability, T/C [29]: 45%; viability, T/C [30]: 36.9%
CCN1CCN(Cc2ccc(Nc3ncc(F)c(-c4cc(F)c5nc(C)n(C(C)C)c5c4)n3)nc2)CC1 + CNCc1ccccc1-c1csc(C(C)Nc2nc(C)nc3cc(OC)c(OC)cc23)c1	< 6.00	< 6.00	7.48	> 8.50	> 8.50	92.4	89.1	102	86.9	78.7	79.1	81.7	58.9	40.5	51.9	9.53	10.2	0.25	0.28	0.37	viability, T/C (second compound 0.1 µM, first compound 0.00316 µM): 102%; viability, T/C (second compound 0.1 µM, first compound 0.01 µM): 91.5%; viability, T/C (second compound 0.316 µM, first compound 0.00316 µM): 92.6%; viability, T/C (second compound 0.316 µM, first compound 0.01 µM): 88.8%; viability, T/C (second compound 1 µM, first compound 0.00316 µM): 76%; viability, T/C (second compound 1 µM, first compound 0.01 µM): 65.7%; viability, T/C (second compound 3.16 µM, first compound 0.00316 µM): 0.86%; viability, T/C (second compound 3.16 µM, first compound 0.01 µM): 0.97%; viability, T/C [22]: 0.51%; viability, T/C (second compound 10 µM, first compound 0.00316 µM): 0.33%; viability, T/C (second compound 10 µM, first compound 0.01 µM): 0.19%; viability, T/C [25]: 0.51%; viability, T/C [26]: 0.3%; viability, T/C [27]: 0.17%; viability, T/C [28]: 0.4%
